Experimental findings from patent publication US7863499B2, “Model of infantile spasm syndrome” (Albert Einstein College of Medicine of Yeshiva University, priority 2007, dated 2011) are described below.

The experiment concerns rat pups. The experiment in a line: Induction of spasm-like seizures in rat pups (video monitoring). The format is in vivo. As to conditions: PCPA only, five pups. Here is the method: […] The pups were injected with DOX i.c.v. and LPS intracerebrally in the right centroparietal cortex at P3; PCPA was administered i.p. at P5. […] There were no sex differences and the data were combined.
Behavioral seizures and spasm-like episodes. […] Seven pups had recurrent seizures resembling spasms. Spasms were first observed at P7 in 60% of the pups. […] The spasms were characterized by the abrupt onset of flexion of the trunk with extension of the limbs at the height of the spasm (the sequence is shown in FIG. 2). In two pups, extension spasms were sometimes observed. The spasms lasted from 1 to 5 seconds.
Anesthesia. Rat pups were anesthetized with 2% isoflurane in 100% O2 continuously delivered by a small facemask, custom-fitted to the stereotaxic frame.
Injections of DOX and LPS. Both male and female rats were used. At P3, stereotaxic injections of DOX and LPS were performed using a 25 μL Hamilton syringe. DOX was injected into the right ventricle (AP=−1.0, ML=1.1, DV=−3.3, reference to bregma) and LPS into the right cerebral hemisphere (AP=−1.0, ML=1.0, DV=2.0, reference to bregma). The injection volume is 5 μl for DOX and 7 μl for LPS. The pups were allowed to recover before returning to the dam.
Titration of doses of agents used to induce spasms. […]

Consider `N[C@@H](Cc1ccc(Cl)cc1)C(=O)O` (racemic) [PCPA, p-chlorophenylalanine], for which the development of spasms result is reported as “none of those pups developed spasms”.
